Test results as given in patent publication US8415469B2, “Compounds and methods for kinase modulation, and indications therefor” (Plexxikon Inc., priority 2005, dated 2013).
pIC50: −log10 of the molar value.

How the values were obtained:
Type in all cases: biochemical
[1] = molecular target: T1, Jnk3 (Homo sapiens, UniProt P53779); assay: AlphaScreen kinase assay, Jnk3; details: read-out: IC50, activity toward kinase Jnk3
T1 construct: purchased Upstate Biotechnology
Description: (§1) AlphaScreen assay was used to screen additional kinases. The assay is similarly dependent on the phosphorylation of a peptide substrate. In this assay, an antibody that recognizes phosphorylated substrate is bound to an acceptor bead. The peptide substrate is attached to biotin, which binds to a donor head that contains streptavidin. Thus phosphorylated substrate is bound by antibody and streptavidin, bringing the donor and acceptor heads into close proximity when kinase is not inhibited. The donor produces singlet oxygen which results in emission from the acceptor when they are in close proximity. Conversely, when kinase is inhibited, the donor and acceptor beads are not associated and the emission from the acceptor is reduced.
(§2) AlphaScreen assays were done using compounds dissolved in DMSO to a concentration of 20 mM. The compounds were diluted accordingly to the desired final concentrations in each sample well, using 1:3 serial dilution for a total of 8 concentration points. Plates were prepared such that each kinase reaction is 20 μl in 1× kinase buffer, 5% DMSO and 10 μM ATP. After incubation of the kinase reaction for 1 hour at room temperature, 5 μl of donor beads in stop buffer (50 mM EDTA in 1× kinase buffer) was added, the sample was mixed and incubated for 20 minutes at room temperature before adding 5 μl of acceptor beads in stop buffer. The samples were incubated for 60 minutes at room temperature and the signal per well was read on AlphaQuest reader.

[2] = molecular target: T2, Kit (Homo sapiens, UniProt P10721); assay: AlphaScreen kinase assay, Kit; details: read-out: IC50, activity toward kinase Kit
T2 construct: P1332.N6 BI PTP KIT M552-K948-X COD; His6 (N); made in house; host or cells: E. coli (PTP1B co-expressed)
T2 sequence (P10721 with tags, fused parts or gaps): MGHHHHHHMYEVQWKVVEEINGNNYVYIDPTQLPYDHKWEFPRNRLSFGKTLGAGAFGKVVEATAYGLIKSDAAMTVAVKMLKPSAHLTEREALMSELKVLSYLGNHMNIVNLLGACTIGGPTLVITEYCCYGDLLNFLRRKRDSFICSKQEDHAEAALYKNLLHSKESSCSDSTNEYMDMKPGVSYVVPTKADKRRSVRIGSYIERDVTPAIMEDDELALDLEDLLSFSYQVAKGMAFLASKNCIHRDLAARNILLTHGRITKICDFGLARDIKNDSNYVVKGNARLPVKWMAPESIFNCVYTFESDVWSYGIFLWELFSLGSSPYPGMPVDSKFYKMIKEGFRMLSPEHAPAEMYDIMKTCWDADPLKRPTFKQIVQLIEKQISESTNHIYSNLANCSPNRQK

[3] = molecular target: T3, FGFR1 (Homo sapiens, UniProt P11362, C488A/C584S); assay: AlphaScreen kinase assay, FGFR1; details: read-out: IC50, activity toward kinase FGFR
T3 construct: P1351.pET N6 BI-PTP FGFR A458-E765-X C488A, C584S; made in house; host or cells: E. coli (PTP1B co-expressed)
T3 sequence (P11362 458-765 C488A/C584S): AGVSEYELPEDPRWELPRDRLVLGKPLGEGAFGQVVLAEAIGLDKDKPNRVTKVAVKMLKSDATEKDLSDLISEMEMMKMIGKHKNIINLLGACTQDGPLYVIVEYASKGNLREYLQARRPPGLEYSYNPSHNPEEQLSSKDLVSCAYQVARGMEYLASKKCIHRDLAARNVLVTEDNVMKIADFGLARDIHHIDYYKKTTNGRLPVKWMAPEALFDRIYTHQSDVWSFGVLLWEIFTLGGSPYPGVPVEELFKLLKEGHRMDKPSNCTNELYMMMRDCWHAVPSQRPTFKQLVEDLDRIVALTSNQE

[4] = molecular target: T4, Flt1 (Homo sapiens, UniProt P17948); assay: AlphaScreen kinase assay, Flt1; details: read-out: IC50, activity toward kinase Flt1
T4 construct: P1826.pETN6 BI-PTP FLT1 M799-D1165-X WT; His6 (N); made in house; host or cells: E. coli (PTP1B co-expressed)
T4 sequence (P17948 with tags, fused parts or gaps): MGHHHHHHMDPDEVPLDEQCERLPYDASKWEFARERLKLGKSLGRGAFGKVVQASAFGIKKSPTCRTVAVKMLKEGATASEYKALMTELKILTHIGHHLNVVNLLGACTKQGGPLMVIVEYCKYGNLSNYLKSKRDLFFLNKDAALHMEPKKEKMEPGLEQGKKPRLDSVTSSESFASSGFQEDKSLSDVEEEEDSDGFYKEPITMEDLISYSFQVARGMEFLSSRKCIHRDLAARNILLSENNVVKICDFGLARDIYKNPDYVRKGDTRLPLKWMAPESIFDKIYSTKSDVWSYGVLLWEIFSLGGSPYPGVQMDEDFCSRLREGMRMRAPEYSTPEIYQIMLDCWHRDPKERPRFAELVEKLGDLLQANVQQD

[5] = molecular target: T5, Ret (Homo sapiens, UniProt P07949); assay: AlphaScreen kinase assay, Ret; details: read-out: IC50, activity toward kinase Ret
T5 construct: P1378.pET-SF BI-PTP RET H661-R1012 HIS; made in house
T5 sequence (P07949 with tags, fused parts or gaps): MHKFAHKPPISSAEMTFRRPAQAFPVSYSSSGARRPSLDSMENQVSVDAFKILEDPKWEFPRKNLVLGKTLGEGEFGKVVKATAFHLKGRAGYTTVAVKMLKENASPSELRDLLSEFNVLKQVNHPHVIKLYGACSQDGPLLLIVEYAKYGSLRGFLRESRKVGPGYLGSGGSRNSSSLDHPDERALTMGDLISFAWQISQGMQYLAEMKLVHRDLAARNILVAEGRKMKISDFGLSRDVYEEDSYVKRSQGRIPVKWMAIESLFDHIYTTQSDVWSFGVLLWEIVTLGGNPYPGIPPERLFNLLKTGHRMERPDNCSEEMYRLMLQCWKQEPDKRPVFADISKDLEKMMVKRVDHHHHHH

[6] = molecular target: T6, B-Raf V600E (Homo sapiens, UniProt P15056, V600E); assay: AlphaScreen kinase assay, B-Raf V600E; details: read-out: IC50, activity toward kinase B-Raf V600E
T6 construct: P4254. pFastBacBD-CDC37 BRAF D437-K722-X, V600E; His6 with pFastBac HT leader (TEV site) (N); made in house; host or cells: Sf9 (baculovirus; chaperone CDC37 co-expressed)
T6 sequence (P15056 with tags, fused parts or gaps V600E): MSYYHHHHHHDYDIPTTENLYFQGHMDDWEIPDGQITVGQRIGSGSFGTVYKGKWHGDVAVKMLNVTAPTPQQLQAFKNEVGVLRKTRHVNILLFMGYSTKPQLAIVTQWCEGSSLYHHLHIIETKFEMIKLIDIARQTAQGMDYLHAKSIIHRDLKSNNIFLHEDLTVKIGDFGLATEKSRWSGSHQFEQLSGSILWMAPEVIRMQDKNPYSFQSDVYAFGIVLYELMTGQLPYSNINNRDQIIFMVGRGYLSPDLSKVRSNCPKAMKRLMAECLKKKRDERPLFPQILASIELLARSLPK

[7] = molecular target: T7, Fms (Homo sapiens, UniProt P07333); assay: AlphaScreen kinase assay, Fms; details: read-out: IC50, activity toward kinase Fms
T7 construct: purchased Upstate Biotechnology
T7 sequence (P07333 20-972): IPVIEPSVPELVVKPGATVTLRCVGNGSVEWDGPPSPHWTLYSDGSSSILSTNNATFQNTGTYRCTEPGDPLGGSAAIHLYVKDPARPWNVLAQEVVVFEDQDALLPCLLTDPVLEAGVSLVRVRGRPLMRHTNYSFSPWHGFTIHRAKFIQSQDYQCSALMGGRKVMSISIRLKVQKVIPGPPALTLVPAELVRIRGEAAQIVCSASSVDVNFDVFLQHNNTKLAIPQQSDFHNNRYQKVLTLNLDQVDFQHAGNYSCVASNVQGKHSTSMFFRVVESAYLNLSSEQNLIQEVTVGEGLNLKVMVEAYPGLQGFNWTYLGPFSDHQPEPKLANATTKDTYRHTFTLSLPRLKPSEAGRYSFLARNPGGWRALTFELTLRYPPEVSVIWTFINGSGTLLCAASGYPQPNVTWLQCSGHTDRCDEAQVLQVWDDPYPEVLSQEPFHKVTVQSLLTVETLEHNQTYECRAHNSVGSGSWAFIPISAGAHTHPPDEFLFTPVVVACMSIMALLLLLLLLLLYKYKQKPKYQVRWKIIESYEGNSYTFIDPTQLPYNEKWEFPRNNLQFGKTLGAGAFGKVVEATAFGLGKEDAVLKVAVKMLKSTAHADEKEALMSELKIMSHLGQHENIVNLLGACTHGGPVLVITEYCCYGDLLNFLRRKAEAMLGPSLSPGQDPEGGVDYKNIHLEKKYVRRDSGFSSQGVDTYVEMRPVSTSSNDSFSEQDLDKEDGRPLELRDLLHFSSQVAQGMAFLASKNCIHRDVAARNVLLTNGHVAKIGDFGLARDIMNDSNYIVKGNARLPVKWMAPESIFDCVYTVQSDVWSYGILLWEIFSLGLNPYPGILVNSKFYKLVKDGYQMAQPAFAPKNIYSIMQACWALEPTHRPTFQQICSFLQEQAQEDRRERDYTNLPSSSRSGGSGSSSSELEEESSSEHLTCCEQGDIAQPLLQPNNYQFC
Description: as §1, §2

[8] = molecular target: T8, B-Raf (Homo sapiens, UniProt P15056); assay: AlphaScreen kinase assay, B-Raf; details: read-out: IC50, activity toward kinase B-Raf
T8 construct: purchased Upstate Biotechnology
T8 sequence (P15056 whole entry): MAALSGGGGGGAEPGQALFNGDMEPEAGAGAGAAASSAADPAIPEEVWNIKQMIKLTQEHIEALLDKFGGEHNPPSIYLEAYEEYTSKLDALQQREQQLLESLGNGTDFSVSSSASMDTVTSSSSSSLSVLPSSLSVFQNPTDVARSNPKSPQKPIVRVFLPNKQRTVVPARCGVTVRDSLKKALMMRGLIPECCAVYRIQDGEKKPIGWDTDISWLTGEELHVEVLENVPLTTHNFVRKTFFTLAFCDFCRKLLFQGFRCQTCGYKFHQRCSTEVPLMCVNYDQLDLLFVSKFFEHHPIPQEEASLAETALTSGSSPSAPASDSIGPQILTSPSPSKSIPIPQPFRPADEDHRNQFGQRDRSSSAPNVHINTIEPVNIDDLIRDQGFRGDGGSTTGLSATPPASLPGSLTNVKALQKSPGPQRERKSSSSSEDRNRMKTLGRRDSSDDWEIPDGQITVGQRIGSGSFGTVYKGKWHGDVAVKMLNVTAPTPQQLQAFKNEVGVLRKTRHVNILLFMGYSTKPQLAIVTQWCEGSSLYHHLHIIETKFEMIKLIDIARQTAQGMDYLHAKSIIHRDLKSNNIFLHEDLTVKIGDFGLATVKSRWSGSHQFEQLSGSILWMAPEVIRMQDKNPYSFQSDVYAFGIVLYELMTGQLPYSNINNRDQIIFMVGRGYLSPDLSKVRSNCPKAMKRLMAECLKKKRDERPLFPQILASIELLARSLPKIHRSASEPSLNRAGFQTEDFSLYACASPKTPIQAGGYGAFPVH

Measured: pIC50

T1 sequence (P53779 whole entry): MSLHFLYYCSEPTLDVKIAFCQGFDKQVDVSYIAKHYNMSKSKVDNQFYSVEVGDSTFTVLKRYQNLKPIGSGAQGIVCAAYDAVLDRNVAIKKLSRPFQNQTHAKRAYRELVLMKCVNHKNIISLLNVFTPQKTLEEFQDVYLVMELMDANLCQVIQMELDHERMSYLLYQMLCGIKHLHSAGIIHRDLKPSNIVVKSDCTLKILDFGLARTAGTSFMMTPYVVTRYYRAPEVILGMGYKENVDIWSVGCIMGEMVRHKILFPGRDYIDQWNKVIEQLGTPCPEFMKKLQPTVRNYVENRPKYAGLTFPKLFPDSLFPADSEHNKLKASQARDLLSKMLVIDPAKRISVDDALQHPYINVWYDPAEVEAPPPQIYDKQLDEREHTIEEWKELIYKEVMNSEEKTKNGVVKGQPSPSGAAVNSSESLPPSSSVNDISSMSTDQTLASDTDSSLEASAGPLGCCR

O=C(c1ccccc1O)c1c[nH]c2ncc(Br)cc12 [Compound P-0263]
≥ 5.00: [1] | [2]

COc1cccc(C(=O)c2c[nH]c3ncc(-c4ccccc4)cc23)c1 [Compound P-0371]
≥ 5.00: [3] | [4] | [1] | [2] | [5]

O=C(c1ccc(-c2cnc3[nH]ccc3c2)cc1)N1CCCC1 [Compound P-0625]
≥ 5.00: [1] | [2]

NC(=O)c1ccc(-c2cnc3[nH]ccc3c2)cc1 [Compound P-0659]
≥ 5.00: [1] | [2] | [5]

Oc1cccc(C(O)c2c[nH]c3ncc(-c4cccs4)cc23)c1 (stereo not shown) [Compound P-0710]
≥ 5.00: [6] | [3] | [1] | [5]

O=C(c1ccccc1O)c1c[nH]c2ncc(-c3cccs3)cc12 [Compound P-0757]
≥ 5.00: [4] | [1] | [2] | [5]

Clc1cccc(Nc2c[nH]c3ncccc23)c1 [Compound P-1489, (3-Chloro-phenyl)-(1H-pyrrolo[2,3-b]pyridin-3-yl)-amine]
≥ 5.00: [7] | [1] | [2]

COc1cccc(Nc2c[nH]c3ncccc23)c1 [Compound P-1490, (3-Methoxy-phenyl)-(1H-pyrrolo[2,3-b]pyridin-3-yl)-amine]
≥ 5.00: [7] | [1] | [2]

c1ccc(COc2ccccc2Nc2c[nH]c3ncccc23)cc1 [Compound P-1505, (2-Benzyloxy-phenyl)-(1H-pyrrolo[2,3-b]pyridin-3-yl)-amine]
≥ 5.00: [6] | [4] | [7] | [1] | [2]

c1cncc(-c2cnc3[nH]cc(Cc4ccc5c(c4)OCCO5)c3c2)c1 [Compound P-1529, 3-(2,3-Dihydro-benzo[1,4]dioxin-6-ylmethyl)-5-pyridin-3-yl-1H-pyrrolo[2,3-b]pyridine]
not listed: [5]
≥ 5.00: all other assays above

O=C(Nc1ccccc1)Nc1cccc(C(=O)c2c[nH]c3ncccc23)c1 [Compound P-1703, 1-Phenyl-3-[3-(1H-pyrrolo[2,3-b]pyridine-3-carbonyl)-phenyl]-urea]
≥ 5.00: [8] | [6] | [7] | [1] | [2]

O=C(Nc1ccc(F)cc1)Nc1cccc(C(=O)c2c[nH]c3ncccc23)c1 [Compound P-1704, 1-(4-Fluoro-phenyl)-3-[3-(1H-pyrrolo[2,3-b]pyridine-3-carbonyl)-phenyl]-urea]
≥ 5.00: [8] | [6] | [7] | [1] | [2]

O=C(Nc1cccc(F)c1)Nc1cccc(C(=O)c2c[nH]c3ncccc23)c1 [Compound P-1716, 1-(3-Fluoro-phenyl)-3-[3-(1H-pyrrolo[2,3-b]pyridine-3-carbonyl)-phenyl]-urea]
≥ 5.00: [8] | [6] | [7] | [1]
